Structures are written as SMILES.

Assay type in all cases: cell-based, human
One assay has as its system Bak. The assay can be described thus: Bak protein level and Bak foci (Western blot, confocal microscopy). The following applies: PPC-1 transfectants, with LCL204 7.5 μM. As to the method:
(§1) Immunoblot analysis. Cells were seeded in 60mm plates as described above and treated accordingly. Cells were lifted by gently scraping the plates, washed once with ice cold PBS and then lysed in lysis buffer (PBS, 1% Triton X-100, 10% glycerol) containing protease inhibitors pepstatin A (0.5 μg/ml), leupeptin (0.5 μg/ml), aprotinin (5 μg/ml), and PMSF (100 μg/ml) for 10 minutes on ice. Insoluble material was removed by centrifugation at 14,000 rpm for 15 minutes at 4° C. The supernatants were then supplemented with SDS at a final concentration of 2% and stored at −80° C. Protein concentrations were determined using the DC Protein Assay (BioRad Laboratories; Hercules, CA, USA) according to the manufacturer's instructions. 50 μg of protein per sample (unless otherwise indicated) were separated on NuPAGE 4-12% Bis-Tris gels (Invitrogen; Carlsbad, CA, USA) and transferred to nitrocellulose membranes (BioRad). Following transfer, membranes were blocked for 1 hour at room temperature in Tris-buffered saline (TBS) containing 0.1% Tween-20 and 5% nonfat dry milk and incubated overnight at 4° C. with primary antibody at a dilution of 1:2,000(actin), 1:1,000(cytochrome c, COX IV, Bax, Bak, p53, p38, P-p38), 1:500(P-JNK, JNK), 1:250 (AC, p73), or 1:400(LAMP-1, cathepsin B). Overnight incubations were performed in 5% milk in TBS-Tween. Following overnight incubation, membranes were washed three times for 10 minutes each in TBS-Tween and incubated for 1 hour at room temperature with secondary antibody in 5% milk TBS-Tween at a dilution 1:5,000 (goat anti-mouse IgG) or 1:50,000 (goat anti-rabbit). Membranes were then washed three times more and incubated for 5 minutes at room temperature with Super Signal HRP substrate (Pierce Biotechnology Inc.; Rockford, IL, USA).
Confocal Microscopy and Immunocytochemistry. DU145 cells were grown in 4.3 cm^2 chamber slides (Nalge Nunc) and transfected with YFPmito alone or with the dominant-negative inhibitor of Drp1(K38A) (64) using FuGENE6 (Roche; Indianapolis, IN) according to the manufacturer's instructions using 1 μg of total DNA per chamber. 24 hr after transfection and 30 min prior to treatment with 15 μM LCL204, cells were exposed to zVAD-fmk (50 μM). The slides were fixed with 4% paraformaldehyde for 20 min then permeabilized with 0.2% Triton X-100 for 15 min, followed by blocking with 4% bovine serum albumin for 45 min at RT. Cells were probed with rabbit polyclonal 2-14 anti-Bak antibody (1:5000; BioChem) for 2 hr then stained with goat anti-rabbit Alexa Fluor 543 antibodies (1:250; Molecular Probes) for 45 min. After washing, cells were imaged using the 63x objective of an LSM 510 Zeiss confocal microscope.

For a further assay, the system named is PPC-1/pcDNA3 cells. Kind of assay: MTS cell viability assay in PPC-1/pcDNA3 cells with kinase inhibitors. The conditions noted are these: 20 μM SB-203580, 40 μM SP600125, LCL204 8 hours. As to the method:
MTS cytotoxicity assays for LCL204 treatments. Cell viability was determined using the CellTiter 96 AQueous One Solution Cell Proliferation Assay (Promega; Madison, Wis., USA). 1×10^4 cells per well were seeded in 96-well plates overnight. The next day media was removed and replaced with either 100 μl media with vehicle control or media containing LCL204 at desired concentrations. Assays were carried out according to manufacturer's instruction as previously described (60). For experiments using enzyme inhibitors and LCL204, media was removed and replaced with 50 μl media containing vehicle only or indicated inhibitor. Cells were pretreated 1 hour at 37° C. before adding 50 μl media containing vehicle, inhibitor only, LCL204 only (2× concentration), or a combination. The remainder of the assay was carried out as described above.
Stable transfections. Both CMV-TAM67 and pcDNA3 vectors were from Dr. Michael Birrer (National Cancer Institute; Rockville, Md.). PPC-1 cells (7×10^5) were transfected with 4 μg of DNA in 60 mm dishes using FuGENE6 according to the manufacturer's instructions. Stably transfected clones were selected in 400 μg/mL G418 (Sigma). TAM67 was detected by Western blot analysis using an antibody for c-Jun (Ab-1, Oncogene) as described above.

Another assay deals with p73. The assay can be described thus: Immunoblot of p73. As to the method:
as §1

In the case of `C[S+]([O-])c1ccc(-c2nc(-c3ccncc3)c(-c3ccc(F)cc3)[nH]2)cc1` (stereo not shown) [SB-203580, reference compound], the “effect of p38 MAPK inhibitor on LCL204-mediated Bak protein levels” value in the assay on Bak is on record as “did not appear to block”. Besides, the “effect on LCL204 cell killing” value in the assay on PPC-1/pcDNA3 cells is “inhibited cell killing to a similar extent”. Besides, in the assay on p73 (PPC-1/pcDNA3 and PPC-1/TAM67 cells, 5 hours), the “basal p73 levels, inhibitor alone” value is listed as “lowered basal p73 levels”. For the same compound, the “effect of kinase inhibitor on LCL204-induced p73 induction” value in the assay with p73 (PPC-1 transfectants, with LCL204 7.5 μM) is “blocked the LCL204-induced p73 up-regulation”.

Values taken from patent publication US8592419B2, “Ceramides and apoptosis-signaling ligand” (MUSC Foundation for Research Development, priority 2004, dated 2013).
